Data as given in PubChem BioAssay (NCI).
Where “and” joins values, the source holds several entries; their conditions need not be identical. Equal entries are not always repeated.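 The compound was tested at five concentrations on cells cultured in 96-well plates, with a 48-hour exposure period. Here, GI50 denotes the concentration required for 50% inhibition of growth. At the TGI there is no net growth.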

How the values were obtained:
Assay in all cases: NCI-60 cell line screen, 48 h
[1] = system: CAKI-1 renal
[2] = system: HS 578T breast
[3] = system: SF-295 CNS
[4] = system: MCF7 breast
[5] = system: BT-549 breast
[6] = system: OVCAR-4 ovarian
[7] = system: HCT-15 colon
[8] = system: SNB-19 CNS
[9] = system: SK-MEL-2 melanoma
[10] = system: SW-620 colon
[11] = system: SR leukemia
[12] = system: NCI-H226 lung
[13] = system: EKVX NSCLC
[14] = system: UACC-62 melanoma
[15] = system: K-562 leukemia
[16] = system: UACC-257 melanoma
[17] = system: A498 renal
[18] = system: DU-145 prostate
[19] = system: T-47D breast
[20] = system: CCRF-CEM leukemia
[21] = system: NCI-H460 lung
[22] = system: MDA-MB-231 breast
[23] = system: LOX IMVI melanoma
[24] = system: ACHN renal
[25] = system: IGROV1 ovarian
[26] = system: OVCAR-5 ovarian
[27] = system: MOLT-4 leukemia
[28] = system: SN12C renal
[29] = system: 786-0 renal
[30] = system: SNB-75 CNS
[31] = system: RPMI-8226 leukemia
[32] = system: SK-MEL-5 melanoma
[33] = system: NCI-H23 lung
[34] = system: HCC-2998 colon
[35] = system: MALME-3M melanoma
[36] = system: A549 NSCLC
[37] = system: HCT-116 colon
[38] = system: TK-10 renal
[39] = system: HL-60(TB) leukemia
[40] = system: SF-539 CNS
[41] = system: NCI-H522 lung
[42] = system: SK-OV-3 ovarian
[43] = system: MDA-MB-435
[44] = system: NCI/ADR-RES ovarian
[45] = system: PC-3 prostate
[46] = system: OVCAR-3 ovarian
[47] = system: KM12 colon
[48] = system: UO-31 renal
[49] = system: SK-MEL-28 melanoma
[50] = system: RXF 393 renal
[51] = system: SF-268 CNS
[52] = system: OVCAR-8 ovarian
[53] = system: U251 CNS
[54] = system: HOP-92 NSCLC
[55] = system: HOP-62 NSCLC
[56] = system: HT29 colon
[57] = system: COLO 205 colon
[58] = system: M14 melanoma

For `O=C(NNc1nc2cc(F)cc(F)c2n2cccc12)c1cccnn1`, the GI50 [1] was 0.291 µM and 0.183 µM, the TGI [1] was 4.96 µM and 5.28 µM and the GI50 [2] was 3.79 µM and 1.13 µM. The TGI [2] was 30 µM and 36.8 µM, the GI50 [3] was 0.175 µM and 0.0735 µM and the TGI [3] was 4.6 µM and 2.14 µM. The GI50 [4] was 0.453 µM and 0.26 µM, the TGI [4] was 5.67 µM and 2.56 µM and the GI50 [5] was 0.52 µM and 0.291 µM. The TGI [5] was 2.26 µM and 9.43 µM, the GI50 [6] was 0.212 µM and the TGI [6] was 8.52 µM. For the same molecule, the GI50 [7] was 0.124 µM and 0.0483 µM, the TGI [7] was 13.5 µM and > 100 µM and the GI50 [8] was 0.409 µM and 0.337 µM. For the same molecule, the GI50 [9] was 1.33 µM and 1.17 µM, the TGI [9] was 19.8 µM and 26.2 µM and the GI50 [10] was 0.363 µM and 0.289 µM. For the same molecule, the TGI [10] was 21.1 µM and > 100 µM, the GI50 [11] was 0.147 µM and 0.0431 µM and the GI50 [12] was 0.341 µM and 0.799 µM. The TGI [12] was 5.64 µM and 7.42 µM, the GI50 [13] was 0.35 µM and 0.164 µM and the TGI [13] was 13.3 µM and 3.26 µM. The GI50 [14] was 0.305 µM and 0.329 µM, the GI50 [15] was 0.817 µM and 0.263 µM and the GI50 [16] was 0.868 µM and 0.395 µM. For the same molecule, the TGI [16] was 3.41 µM and 3.63 µM, the GI50 [17] was 0.868 µM and 0.428 µM and the TGI [17] was 4.85 µM and 3.08 µM. The GI50 [18] was 0.507 µM and 0.371 µM, the TGI [18] was 6.23 µM and 4.08 µM and the GI50 [19] was 0.632 µM and 0.322 µM. For the same molecule, the TGI [19] was 11.3 µM and 4.18 µM, the GI50 [20] was 0.163 µM and 0.0432 µM and the GI50 [21] was 0.147 µM and 0.061 µM. The TGI [21] was 3.47 µM and 1.28 µM, the GI50 [22] was 0.82 µM and 0.784 µM and the TGI [22] was 10.3 µM and > 100 µM. The GI50 [23] was 0.295 µM, the TGI [23] was 3.57 µM and the GI50 [24] was 0.164 µM and 0.165 µM. The TGI [24] was 4.14 µM and 3.17 µM, the GI50 [25] was 0.21 µM and 0.211 µM and the TGI [25] was 4.68 µM and 3.64 µM. For the same molecule, the GI50 [26] was 0.847 µM and 1.39 µM, the TGI [26] was 30 µM and 31.6 µM and the GI50 [27] was 0.186 µM and 0.167 µM. For the same molecule, the GI50 [28] was 0.5 µM and 0.554 µM, the TGI [28] was 16.4 µM and 19.9 µM and the GI50 [29] was 0.208 µM and 0.261 µM. The TGI [29] was 2.46 µM and 6.24 µM, the TGI [30] was 17.9 µM and 7.79 µM and the GI50 [31] was 0.716 µM and 0.286 µM. For the same molecule, the TGI [31] was 30 µM and 3.06 µM, the GI50 [32] was 0.504 µM and 0.312 µM and the TGI [32] was 4.95 µM and 2.39 µM. For the same molecule, the GI50 [33] was 0.575 µM, the TGI [33] was > 100 µM and the GI50 [34] was 0.612 µM and 0.436 µM. The TGI [34] was 11.3 µM and 18 µM, the GI50 [35] was 0.784 µM and 1.02 µM and the TGI [35] was 6.18 µM and 5.97 µM. For the same molecule, the GI50 [36] was 0.378 µM and 0.215 µM, the TGI [36] was 5.72 µM and 3.74 µM and the GI50 [37] was 0.151 µM. The TGI [37] was 0.916 µM, the GI50 [38] was 0.792 µM and 0.317 µM and the TGI [38] was 20.8 µM and 11.3 µM. For the same molecule, the GI50 [39] was 0.765 µM and 0.259 µM, the GI50 [40] was 0.396 µM and 0.314 µM and the TGI [40] was 3.87 µM and 3.35 µM. The GI50 [41] was 0.89 µM and 0.254 µM, the GI50 [42] was 0.441 µM and 0.344 µM and the TGI [42] was 6.48 µM and 6.7 µM. For the same molecule, the GI50 [43] was 1.27 µM and 0.599 µM, the TGI [43] was 30 µM and 15.8 µM and the GI50 [44] was 0.27 µM and 0.161 µM. For the same molecule, the TGI [44] was 3.85 µM and 2.19 µM, the GI50 [45] was 0.478 µM and 0.296 µM and the TGI [45] was 30 µM and > 100 µM. The GI50 [46] was 0.234 µM and 0.128 µM, the TGI [46] was 5.19 µM and 10.7 µM and the GI50 [47] was 0.507 µM and 0.185 µM. For the same molecule, the TGI [47] was 30 µM and > 100 µM, the GI50 [48] was 0.118 µM and 0.0519 µM and the TGI [48] was 3.63 µM and 1.77 µM. The GI50 [49] was 0.517 µM and 0.528 µM, the TGI [49] was 12.5 µM and 21.6 µM and the GI50 [50] was 0.865 µM and 0.242 µM. For the same molecule, the TGI [50] was 3.61 µM and 2.17 µM, the GI50 [51] was 0.359 µM and 0.209 µM and the TGI [51] was 30 µM and 11.4 µM. For the same molecule, the GI50 [52] was 0.362 µM and 0.246 µM, the TGI [52] was 30 µM and > 100 µM and the GI50 [53] was 0.241 µM and 0.113 µM. The TGI [53] was 13.3 µM and 4.42 µM, the GI50 [54] was 0.778 µM and 0.44 µM and the TGI [54] was 8.79 µM and 5.34 µM. The GI50 [55] was 0.206 µM and 0.0677 µM, the TGI [55] was 4.77 µM and 5.25 µM and the GI50 [56] was 0.725 µM and 0.475 µM. The TGI [56] was 30 µM and 27.2 µM, the GI50 [57] was 0.533 µM and the TGI [57] was 5.06 µM. For the same molecule, the GI50 [58] was 0.164 µM and 0.179 µM.
